Marks after values point to notes of the source that are not given here.
Experiments:
[1] = target: T1, Human 5-HT4 receptor (5-HT4b) (Homo sapiens, UniProt Q13639); test: Test Example 3: Human 5-HT4 receptor binding assay, membranes of CHO-K1 cells stably expressing 5-HT4b receptors (Table 99); conditions: mean value of each group
T1 construct: expressed in transfected cells; membrane preparation
Method in brief: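 Radioligand displacement: [3H]-GR113808 (0.1 nM) bound to CHO-K1 5-HT4b membranes for 30 min at 37 °C in Hepes buffer (50 mM, pH 7.4). Specific binding is total minus that with 30 μM serotonin; filter-bound radioactivity counted, IC50 derived from percent inhibition.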

[2] = system: scopolamine-induced cognitive impairment; test: Example 5: Y-maze test, scopolamine-induced cognitive impairment, single-agent administration (Table 101); type: in vivo, ddY mouse; conditions: p.o., scopolamine-treated, # = P<0.05 vs scopolamine group
Excerpt: (§1) Thus, scopolamine-induced cognitive impairment model, one of the AD-like model, has been used to predict pharmacodynamic signals of putative procognitive compounds, utilizing the acetylcholinesterase inhibitor donepezil for illustration (See, Citations 1 and 2). The present inventors investigated the effect of each compound on reversal of scopolamine-induced deficits in performance of Y-maze test in mice, and they also investigated adjunctive effect of compounds with donepezil on reversal of deficits induced by scopolamine and MK801 in mice.
(§2) Used animal: ddY mouse (SLC)
(§3) In the experiments, the mice were grouped in the same way using Stat Preclinica (Version 1.03295; Takumi Information Technology Inc.). The selected mice were divided into 5 to 7 groups of 7 to 12 mice using the “completely randomization design by the single variable” program (Analytical program version 1.0.7), with body weight on the testing day. After grouping, p values for Bartlett's test and ANOVA across all groups were greater than 0.2, indicating no significant difference in this parameter among the groups.
The required amount of each compound was weighed and put into a glass homogenizer. […]
(§4) The required amount of scopolamine and MK801 were weighed, and saline was added to it to give 0.3 mg/mL and 0.015 mg/mL solution, respectively.
(§5) 90 Min before the test, the mice were orally administered each compound, donepezil, and vehicle (0.5% methyl cellulose, 10 mL/kg). After 60 min, memory impairment was induced by administering scopolamine (0.6 mg/kg, s.c.) with (co-administration) or without (mono-administration) MK801 (0.03 mg/kg, s.c.). The control group received saline (2 mL/kg, s.c.) rather than scopolamine and MK801.
(§6) The Y-maze used herein is a three-arm maze with equal angles between all arms. The mazefloor and walls were constructed from black acrylic resin. The mice were initially placed within one arm, and the sequence and number of arm entries were recorded manually for each mouse over an 8-min period.
(§7) Data were processed and analyzed with Microsoft® Office Excel 2003. The alternation behavior was defined as entries into all three arms on consecutive occasions. The percent alternation behavior in each animal was calculated using the following formula, and rounded to one decimal place.
(§8) Alternation behavior(%)=[actual alternation/(total arm entries−2)]×100
(§9) Restoration ratio of alternation behavior (%) in each animal was calculated using the following formula, and rounded to one decimal place.
(§10) Restoration ratio of alternation behavior in each animal (%)=y Alternation behavior in each animal (%)=x Mean of alternation behavior in vehicle-treated group (group No. 1) (%)=A Mean of alternation behavior in scopolamine-treated group (group No. 2) (%)=B
(§11) Data were expressed as the mean of the percent alternation behavior, the number of total arm entries and the restoration ratio of alternation behavior.
(§12) Values of Y-maze tests are expressed as mean of alternation behavior (n=7−12).
(§13) Alternation behaviors in the scopolamine-treated groups were compared to those in the control groups using Wilcoxon rank sum test (Stat preclinical; Version 1.03295; Takumi Information Technology Inc.) with a two-sided significance level of 0.05.
(§14) Restoration of alternation behavior was analyzed using Stat Preclinica. Alternation behaviors in the vehicle-treated group were compared to those in the test substance-treated groups using non-parametric Dunnett multiple comparison test (Analytical program version 1.0.2) with a two-sided significance level of 0.05.

[3] = system: scopolamine and MK801-induced cognitive impairment; test: Example 5: Y-maze test, scopolamine and MK801-induced deficits, co-administration with donepezil (Table 102); type: in vivo, ddY mouse
Excerpt: as §1, §2, §3
The required amount of each compound was weighed and put into a glass homogenizer. The required amount of 0.5% MC (methyl cellulose) solution was added, and each compound was suspended to give a 10 mg/kg dosing suspension.
The required amount of donepezil was weighed and put into a glass homogenizer. The required amount of 0.5% MC solution was added, and donepezil was suspended to give a suspension at concentration of 1 mg/mL (10 mg/kg dosing suspension).
as §4, §5, §6, §7, §8, §9, §10, §11, §12, §13
as §14, with “the Donepezil (10 mg/kg, p.o.)-treated” for “the vehicle-treated”, “the co-administrated groups of” for “the”, “test compounds with donepezil (10 mg/kg, p.o.)” for “test substance-treated groups”

[4] = compound 0.1 mg/kg, p.o. co-administered with Donepezil 10 mg/kg, p.o.

T1 sequence (Q13639 whole entry): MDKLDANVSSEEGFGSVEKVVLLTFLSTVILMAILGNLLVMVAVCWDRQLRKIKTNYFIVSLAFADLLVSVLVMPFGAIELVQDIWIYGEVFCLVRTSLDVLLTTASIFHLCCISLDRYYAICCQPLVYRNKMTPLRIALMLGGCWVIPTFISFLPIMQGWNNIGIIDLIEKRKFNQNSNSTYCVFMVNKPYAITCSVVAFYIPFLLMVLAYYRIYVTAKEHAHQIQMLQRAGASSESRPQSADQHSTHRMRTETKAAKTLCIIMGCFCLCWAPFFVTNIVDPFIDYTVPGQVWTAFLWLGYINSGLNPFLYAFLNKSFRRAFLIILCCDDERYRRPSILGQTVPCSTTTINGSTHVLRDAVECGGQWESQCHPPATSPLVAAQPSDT

CC(C)c1nn(-c2noc(C3CCN(C4CCN(C(=O)CO)CC4)CC3)n2)c2c(F)cccc12 [Example 242, 1-(4-{3-[7-fluoro-3-(propan-2-yl)-1H-indazol-1-yl]-1,2,4-oxadiazol-5-yl}-1,4′-bipiperidin-1′-yl)-2-hydroxyethanone]
IC50 [1]: < 20 nM
Alternation behavior (%) ([2]; compound 1 mg/kg): 63.4^# %
Alternation behavior (%) ([2]; compound 3 mg/kg): 62.9^# %
Alternation behavior (%) ([2]; compound 10 mg/kg): 57.5%
Alternation behavior (%) ([3]; compound 0.1 mg/kg, p.o. alone): 51.2^# %
Alternation behavior (%) [3, 4]: 58.6^$ %
Alternation behavior (%) ([3]; compound 0.3 mg/kg, p.o. alone): 57.4^# %
Alternation behavior (%) ([3]; compound 0.3 mg/kg, p.o. co-administered with Donepezil 10 mg/kg, p.o.): 62.5^$ %

CC(=O)N1CCC(N2CCC(c3nc(-n4nc(C(C)C)c5cccc(F)c54)no3)CC2)CC1.Cl [Example 232, 1-(4-{3-[7-fluoro-3-(propan-2-yl)-1H-indazol-1-yl]-1,2,4-oxadiazol-5-yl}-1,4′-bipiperidin-1′-yl)ethanone hydrochloride]
IC50 [1]: < 20 nM
Alternation behavior (%) ([2]; compound 1 mg/kg): 66.3^# %
Alternation behavior (%) ([2]; compound 3 mg/kg): 63.0^# %
Alternation behavior (%) ([2]; compound 10 mg/kg): 53.6%
Alternation behavior (%) ([3]; compound 0.03 mg/kg, p.o. alone): 46.7%
Alternation behavior (%) ([3]; compound 0.03 mg/kg, p.o. co-administered with Donepezil 10 mg/kg, p.o.): 48.5%
Alternation behavior (%) ([3]; compound 0.1 mg/kg, p.o. alone): 48.0^# %
Alternation behavior (%) [3, 4]: 62.4^$ %

Source: patent US20140057895A1, “INDAZOLE- AND PYRROLOPYRIDINE-DERIVATIVE AND PHARMACEUTICAL USE THEREOF” (priority 2011, published 2014)
